The target of one assay is hNav1.7 (Homo sapiens, UniProt Q15858). Put plainly: cell-based. The conditions noted are these: Nav1.7 Use IC50.
Another assay has as its target hNav1.5 (Homo sapiens, UniProt Q14524). Put plainly: cell-based.

IC50 data for eight compounds are collected here from patent publication US9340590B2 (priority 2011, dated 2016).

Each structure is given as a SMILES string. Positions of bridges follow the written chain, without caps; N, C: chain ends. Non-standard residues stand in square brackets, D forms with d. Residues, ends and D or L forms follow the SMILES beside them. Phe(3,4-(OMe)2) = COc1ccc(C[C@H](N)C(=O)O)cc1OC; Lys(Me2) = CN(C)CCCC[C@H](N)C(=O)O

Sequence of hNav1.5 (Q14524 whole entry, looked up): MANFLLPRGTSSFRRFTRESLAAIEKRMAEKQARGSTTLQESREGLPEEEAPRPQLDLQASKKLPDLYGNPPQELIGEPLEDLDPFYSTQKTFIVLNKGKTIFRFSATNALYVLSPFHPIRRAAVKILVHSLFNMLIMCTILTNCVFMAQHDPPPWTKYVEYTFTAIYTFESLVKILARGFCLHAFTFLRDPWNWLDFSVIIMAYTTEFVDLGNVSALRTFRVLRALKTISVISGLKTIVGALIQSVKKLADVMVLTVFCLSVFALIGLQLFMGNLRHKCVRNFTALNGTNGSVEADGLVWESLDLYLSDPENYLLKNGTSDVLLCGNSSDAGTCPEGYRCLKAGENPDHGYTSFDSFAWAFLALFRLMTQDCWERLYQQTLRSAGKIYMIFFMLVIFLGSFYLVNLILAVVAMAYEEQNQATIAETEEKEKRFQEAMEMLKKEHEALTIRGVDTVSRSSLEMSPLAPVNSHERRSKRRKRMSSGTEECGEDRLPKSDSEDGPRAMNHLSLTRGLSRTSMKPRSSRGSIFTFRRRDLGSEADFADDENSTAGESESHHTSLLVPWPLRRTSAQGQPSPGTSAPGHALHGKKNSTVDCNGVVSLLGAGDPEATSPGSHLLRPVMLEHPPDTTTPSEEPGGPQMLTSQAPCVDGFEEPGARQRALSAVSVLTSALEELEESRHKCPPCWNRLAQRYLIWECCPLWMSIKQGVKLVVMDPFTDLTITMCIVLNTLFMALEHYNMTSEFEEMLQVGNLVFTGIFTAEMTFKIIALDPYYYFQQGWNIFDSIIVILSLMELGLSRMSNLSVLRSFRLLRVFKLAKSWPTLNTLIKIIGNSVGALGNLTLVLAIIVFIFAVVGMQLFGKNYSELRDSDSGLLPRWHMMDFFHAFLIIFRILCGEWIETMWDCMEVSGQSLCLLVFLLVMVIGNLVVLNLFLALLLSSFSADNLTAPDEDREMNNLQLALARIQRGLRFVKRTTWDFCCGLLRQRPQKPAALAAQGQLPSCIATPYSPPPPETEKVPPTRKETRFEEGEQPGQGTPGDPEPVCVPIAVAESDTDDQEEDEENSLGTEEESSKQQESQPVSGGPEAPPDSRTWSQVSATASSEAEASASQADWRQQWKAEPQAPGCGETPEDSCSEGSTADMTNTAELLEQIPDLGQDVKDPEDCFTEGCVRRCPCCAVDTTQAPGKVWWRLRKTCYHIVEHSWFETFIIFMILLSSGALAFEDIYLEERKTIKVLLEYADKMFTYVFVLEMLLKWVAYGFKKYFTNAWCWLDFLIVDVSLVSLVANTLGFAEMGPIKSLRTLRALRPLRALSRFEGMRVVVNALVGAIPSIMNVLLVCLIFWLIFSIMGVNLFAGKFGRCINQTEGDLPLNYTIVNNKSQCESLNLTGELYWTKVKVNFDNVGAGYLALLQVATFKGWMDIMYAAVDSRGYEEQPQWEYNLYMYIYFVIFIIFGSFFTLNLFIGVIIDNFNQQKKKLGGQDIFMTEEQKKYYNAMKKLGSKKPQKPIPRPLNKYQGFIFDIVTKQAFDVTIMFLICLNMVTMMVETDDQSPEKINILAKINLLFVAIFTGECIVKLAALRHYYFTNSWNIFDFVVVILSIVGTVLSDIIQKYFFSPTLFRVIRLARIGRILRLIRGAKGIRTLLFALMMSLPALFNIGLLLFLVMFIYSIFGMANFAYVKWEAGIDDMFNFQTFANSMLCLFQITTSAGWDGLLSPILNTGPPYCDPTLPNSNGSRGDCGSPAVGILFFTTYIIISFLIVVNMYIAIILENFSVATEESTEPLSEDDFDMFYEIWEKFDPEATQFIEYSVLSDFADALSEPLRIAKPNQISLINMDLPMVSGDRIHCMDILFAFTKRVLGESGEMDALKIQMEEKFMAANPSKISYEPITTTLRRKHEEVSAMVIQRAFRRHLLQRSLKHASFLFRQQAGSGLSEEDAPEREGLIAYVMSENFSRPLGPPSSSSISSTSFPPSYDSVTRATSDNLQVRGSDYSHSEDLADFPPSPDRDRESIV
Sequence of hNav1.7 (Q15858 whole entry, looked up): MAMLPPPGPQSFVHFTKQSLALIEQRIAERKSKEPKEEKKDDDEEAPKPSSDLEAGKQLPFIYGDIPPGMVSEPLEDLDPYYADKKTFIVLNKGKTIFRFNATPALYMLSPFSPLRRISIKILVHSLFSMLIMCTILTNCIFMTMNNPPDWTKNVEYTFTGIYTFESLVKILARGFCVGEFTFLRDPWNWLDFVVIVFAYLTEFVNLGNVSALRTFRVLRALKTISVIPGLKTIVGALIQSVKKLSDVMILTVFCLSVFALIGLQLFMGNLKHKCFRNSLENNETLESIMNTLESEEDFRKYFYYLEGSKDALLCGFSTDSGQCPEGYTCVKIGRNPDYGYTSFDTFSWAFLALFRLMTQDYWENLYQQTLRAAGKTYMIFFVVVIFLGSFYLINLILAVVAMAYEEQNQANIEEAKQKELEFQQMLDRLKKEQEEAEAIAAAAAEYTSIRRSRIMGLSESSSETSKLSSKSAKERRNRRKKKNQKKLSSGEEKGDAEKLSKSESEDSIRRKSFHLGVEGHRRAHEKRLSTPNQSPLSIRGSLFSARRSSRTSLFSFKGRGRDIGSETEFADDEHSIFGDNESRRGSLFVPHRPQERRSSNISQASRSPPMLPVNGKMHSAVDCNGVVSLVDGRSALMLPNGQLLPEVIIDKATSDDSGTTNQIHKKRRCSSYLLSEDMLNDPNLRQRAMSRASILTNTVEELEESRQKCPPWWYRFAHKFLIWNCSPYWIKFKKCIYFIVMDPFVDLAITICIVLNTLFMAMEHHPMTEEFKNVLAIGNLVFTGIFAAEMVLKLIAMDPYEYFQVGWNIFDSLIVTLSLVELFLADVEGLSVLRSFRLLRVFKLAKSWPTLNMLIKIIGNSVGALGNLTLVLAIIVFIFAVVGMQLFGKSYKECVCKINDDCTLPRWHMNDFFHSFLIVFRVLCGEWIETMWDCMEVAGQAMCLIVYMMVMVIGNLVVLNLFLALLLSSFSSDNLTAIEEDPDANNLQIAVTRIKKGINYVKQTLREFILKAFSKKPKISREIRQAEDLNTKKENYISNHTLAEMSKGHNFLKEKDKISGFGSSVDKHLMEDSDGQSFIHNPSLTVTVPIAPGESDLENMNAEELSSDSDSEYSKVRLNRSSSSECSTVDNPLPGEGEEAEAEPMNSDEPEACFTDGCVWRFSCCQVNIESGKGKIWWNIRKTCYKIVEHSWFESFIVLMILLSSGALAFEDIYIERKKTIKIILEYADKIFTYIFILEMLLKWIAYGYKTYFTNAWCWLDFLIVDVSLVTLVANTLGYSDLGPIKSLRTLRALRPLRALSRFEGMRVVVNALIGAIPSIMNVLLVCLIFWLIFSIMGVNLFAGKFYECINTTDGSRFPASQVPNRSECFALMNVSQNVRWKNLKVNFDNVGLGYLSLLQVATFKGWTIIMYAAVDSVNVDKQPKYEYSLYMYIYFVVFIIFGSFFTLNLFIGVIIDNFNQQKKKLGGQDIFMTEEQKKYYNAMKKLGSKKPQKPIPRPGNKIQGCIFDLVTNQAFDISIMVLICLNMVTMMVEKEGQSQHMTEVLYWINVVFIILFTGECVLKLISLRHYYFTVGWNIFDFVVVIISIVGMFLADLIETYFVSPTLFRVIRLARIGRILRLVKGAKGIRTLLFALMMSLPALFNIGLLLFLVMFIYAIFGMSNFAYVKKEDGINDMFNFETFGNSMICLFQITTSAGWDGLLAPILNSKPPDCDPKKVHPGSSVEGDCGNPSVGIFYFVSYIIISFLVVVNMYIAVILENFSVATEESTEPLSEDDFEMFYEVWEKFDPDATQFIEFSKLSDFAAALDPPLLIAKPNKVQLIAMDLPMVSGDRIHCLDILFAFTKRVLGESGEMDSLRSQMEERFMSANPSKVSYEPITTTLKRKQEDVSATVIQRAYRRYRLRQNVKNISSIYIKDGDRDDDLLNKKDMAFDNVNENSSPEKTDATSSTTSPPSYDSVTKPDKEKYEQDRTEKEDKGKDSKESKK

In the case of `CC[C@H](C)[C@@H]1NC(=O)[C@@H]2CSSC[C@@H]3NC(=O)[C@H](C(C)C)NC(=O)[C@H](CC(C)C)NC(=O)[C@H](CC(N)=O)NC(=O)[C@@H]4CCCN4C(=O)[C@H](CCCNC(=N)N)NC(=O)[C@H](CSSC[C@H](NC(=O)[C@@H](N)CC(=O)O)C(=O)N[C@@H](CC(C)C)C(=O)N[C@@H](CCCNC(=N)N)C(=O)N[C@@H](CCSC)C(=O)N[C@@H](CCSC)C(=O)N[C@@H](CCCNC(=N)N)C(=O)N[C@@H](CCCCN)C(=O)N2)NC(=O)[C@H](CSSC[C@@H](C(=O)N[C@@H](CCCCN)C(=O)N[C@@H](Cc2ccc(O)cc2)C(=O)N[C@H](C(=O)N[C@@H](Cc2ccccc2)C(N)=O)C(C)C)NC(=O)[C@H](Cc2c[nH]c4ccccc24)NC(=O)[C@H](CCCCN)NC(=O)[C@H](Cc2c[nH]cn2)NC(=O)[C@H]([C@@H](C)O)NC(=O)[C@H](CCCNC(=N)N)NC(=O)[C@H](CO)NC3=O)NC(=O)[C@H](CCCCN)NC(=O)[C@H](CC(=O)O)NC(=O)[C@H](CC(N)=O)NC(=O)[C@H](CC(=O)O)NC(=O)[C@@H]2CCCN2C1=O` [[Arg4;Met5]GpTx-1(1-34)] (H-DCLRMMRKCIPDNDKCCRPNLVCSRTHKWCKYVF-NH2; disulfide 2-17, 9-23, 16-30), the IC50 (usually the concentration needed to halve the response being measured) against hNav1.7 turned out to be 29 nM; against hNav1.5, 13200 nM.

`CC[C@H](C)[C@@H]1NC(=O)[C@@H]2CSSC[C@@H]3NC(=O)[C@H](C(C)C)NC(=O)[C@H](CC(C)C)NC(=O)[C@H](CC(N)=O)NC(=O)[C@@H]4CCCN4C(=O)[C@H](CCCNC(N)=O)NC(=O)[C@H](CSSC[C@H](NC(=O)[C@@H](N)CC(=O)O)C(=O)N[C@@H](CC(C)C)C(=O)NCC(=O)N[C@@H](Cc4ccccc4)C(=O)N[C@@H](CCSC)C(=O)N[C@@H](CCCNC(=N)N)C(=O)N[C@@H](CCCCN)C(=O)N2)NC(=O)[C@H](CSSC[C@@H](C(=O)N[C@@H](CCCCN)C(=O)N[C@@H](Cc2ccc(O)cc2)C(=O)N[C@H](C(=O)N[C@@H](Cc2ccccc2)C(N)=O)C(C)C)NC(=O)[C@H](Cc2c[nH]c4ccccc24)NC(=O)[C@H](CCCCN)NC(=O)[C@H](Cc2cnc[nH]2)NC(=O)[C@H]([C@@H](C)O)NC(=O)[C@H](CCCNC(=N)N)NC(=O)[C@H](CO)NC3=O)NC(=O)[C@H](CCCCN)NC(=O)[C@H](CC(=O)O)NC(=O)[C@H](CC(N)=O)NC(=O)[C@H](CC(=O)O)NC(=O)[C@@H]2CCCN2C1=O` [[Cit18]GpTx-1(1-34)]: the half-maximal inhibitory concentration (IC50) against hNav1.7 was 2 nM; at hNav1.5, 10000 nM.

In the case of `CC[C@H](C)[C@@H]1NC(=O)[C@@H]2CSSC[C@@H]3NC(=O)[C@H](C(C)C)NC(=O)[C@H](CC(C)C)NC(=O)[C@H](CC(N)=O)NC(=O)[C@@H]4CCCN4C(=O)[C@H](CCCNC(=N)N)NC(=O)[C@H](CSSC[C@H](NC(=O)[C@@H](N)CC(=O)O)C(=O)N[C@@H](CC(C)C)C(=O)NCC(=O)N[C@@H](Cc4ccccc4)C(=O)N[C@@H](CCSC)C(=O)N[C@@H](CCCNC(=N)N)C(=O)N[C@@H](CCCCN)C(=O)N2)NC(=O)[C@H](CSSC[C@@H](C(=O)N[C@@H](CCCCN)C(=O)N[C@@H](Cc2ccc(O)cc2)C(=O)N[C@H](C(=O)N[C@@H](Cc2ccccc2)C(N)=O)C(C)C)NC(=O)[C@H](Cc2c[nH]c4ccccc24)NC(=O)[C@H](CCCCN)NC(=O)[C@H](Cc2c[nH]cn2)NC(=O)[C@H]([C@@H](C)O)NC(=O)[C@H](CCCNC(N)=O)NC(=O)[C@H](CO)NC3=O)NC(=O)[C@H](CCCCN)NC(=O)[C@H](CC(=O)O)NC(=O)[C@H](CC(N)=O)NC(=O)[C@H](CC(=O)O)NC(=O)[C@@H]2CCCN2C1=O` [[Cit25]GpTx-1(1-34)], the half-inhibitory concentration (IC50) on hNav1.7 was 4 nM; against hNav1.5, more than 10000 nM.

As to `CC[C@H](C)[C@@H]1NC(=O)[C@@H]2CSSC[C@@H]3NC(=O)[C@H](C(C)C)NC(=O)[C@H](CC(C)C)NC(=O)[C@H](CC(N)=O)NC(=O)[C@@H]4CCCN4C(=O)[C@H](CCCNC(=N)N)NC(=O)[C@H](CSSC[C@H](NC(=O)[C@@H](N)CC(=O)O)C(=O)N[C@@H](CC(C)C)C(=O)NCC(=O)N[C@@H](Cc4ccc(OC)c(OC)c4)C(=O)N[C@@H](Cc4ccccc4)C(=O)N[C@@H](CCCNC(=N)N)C(=O)N[C@@H](CCCCN)C(=O)N2)NC(=O)[C@H](CSSC[C@@H](C(=O)N[C@@H](CCCCN)C(=O)N[C@@H](Cc2ccc(O)cc2)C(=O)N[C@H](C(=O)N[C@@H](Cc2ccccc2)C(N)=O)C(C)C)NC(=O)[C@H](Cc2c[nH]c4ccccc24)NC(=O)[C@H](CCCCN)NC(=O)[C@H](Cc2c[nH]cn2)NC(=O)[C@H]([C@@H](C)O)NC(=O)[C@H](CCCNC(=N)N)NC(=O)[C@H](CO)NC3=O)NC(=O)[C@H](CCCCN)NC(=O)[C@H](CC(=O)O)NC(=O)[C@H](CC(N)=O)NC(=O)[C@H](CC(=O)O)NC(=O)[C@@H]2CCCN2C1=O` [[DiMeO-F5;Phe6]GpTx-1(1-34)] (H-DCLG[Phe(3,4-(OMe)2)]FRKCIPDNDKCCRPNLVCSRTHKWCKYVF-NH2; disulfide 2-17, 9-23, 16-30), the IC50 is 33 nM on hNav1.7 and more than 10000 nM on hNav1.5.

For the compound `CC[C@H](C)[C@@H]1NC(=O)[C@@H]2CSSC[C@@H]3NC(=O)[C@H](C(C)C)NC(=O)[C@H](CC(C)C)NC(=O)[C@H](CC(N)=O)NC(=O)[C@@H]4CCCN4C(=O)[C@H](CCCNC(=N)N)NC(=O)[C@H](CSSC[C@H](NC(=O)[C@@H](N)CC(=O)O)C(=O)N[C@@H](CC(C)C)C(=O)NCC(=O)N[C@@H](Cc4ccccc4)C(=O)N[C@@H](CCSC)C(=O)N[C@@H](CCCNC(=N)N)C(=O)N[C@@H](CCCCN)C(=O)N2)NC(=O)[C@H](CSSC[C@@H](C(=O)N[C@@H](CCCCN)C(=O)N[C@@H](Cc2ccc(O)cc2)C(=O)N[C@H](C(=O)N[C@@H](Cc2ccccc2)C(N)=O)C(C)C)NC(=O)[C@H](Cc2c[nH]c4ccccc24)NC(=O)[C@H](CCCCN)NC(=O)[C@H](Cc2c[nH]cn2)NC(=O)[C@H]([C@@H](C)O)NC(=O)[C@H](CCCNC(=N)N)NC(=O)[C@H](CO)NC3=O)NC(=O)[C@H](CCC(=O)O)NC(=O)[C@H](CC(=O)O)NC(=O)[C@H](CC(N)=O)NC(=O)[C@H](CC(=O)O)NC(=O)[C@@H]2CCCN2C1=O` [[Glu15]GpTx-1(1-34)] (H-DCLGFMRKCIPDNDECCRPNLVCSRTHKWCKYVF-NH2; disulfide 2-17, 9-23, 16-30), the IC50 against hNav1.7 turned out to be 20 nM; on hNav1.5, 10000 nM.

As for `CC[C@H](C)[C@@H]1NC(=O)[C@@H]2CSSC[C@@H]3NC(=O)[C@H](C(C)C)NC(=O)[C@H](CC(C)C)NC(=O)[C@H](CC(N)=O)NC(=O)[C@@H]4CCCN4C(=O)[C@H](CCCNC(=N)N)NC(=O)[C@H](CSSC[C@H](NC(=O)[C@@H](N)CC(=O)O)C(=O)N[C@@H](CC(C)C)C(=O)NCC(=O)N[C@@H](Cc4ccccc4)C(=O)N[C@@H](CCSC)C(=O)N[C@@H](CCCNC(=N)N)C(=O)N[C@@H](CCCCN)C(=O)N2)NC(=O)[C@H](CSSC[C@@H](C(=O)N[C@@H](CCCCN)C(=O)N[C@@H](Cc2ccc(O)cc2)C(=O)N[C@H](C(=O)N[C@@H](Cc2ccccc2)C(N)=O)C(C)C)NC(=O)[C@H](Cc2c[nH]c4ccccc24)NC(=O)[C@H](CCCCN)NC(=O)[C@H](Cc2c[nH]cn2)NC(=O)[C@H]([C@@H](C)O)NC(=O)[C@H](CCC(=O)O)NC(=O)[C@H](CO)NC3=O)NC(=O)[C@H](CCCCN)NC(=O)[C@H](CC(=O)O)NC(=O)[C@H](CC(N)=O)NC(=O)[C@H](CC(=O)O)NC(=O)[C@@H]2CCCN2C1=O` [[Glu25]GpTx-1(1-34)] (H-DCLGFMRKCIPDNDKCCRPNLVCSETHKWCKYVF-NH2; disulfide 2-17, 9-23, 16-30), the half-inhibitory concentration (IC50) was 28 nM on hNav1.7 and more than 10000 nM against hNav1.5.

On to `CC[C@H](C)[C@@H]1NC(=O)[C@@H]2CSSC[C@@H]3NC(=O)[C@H](C(C)C)NC(=O)[C@H](CC(C)C)NC(=O)[C@H](CC(N)=O)NC(=O)[C@@H]4CCCN4C(=O)[C@H](CCCNC(=N)N)NC(=O)[C@H](CSSC[C@H](NC(=O)[C@@H](N)CC(=O)O)C(=O)N[C@@H](CC(C)C)C(=O)NCC(=O)N[C@@H](Cc4ccccc4)C(=O)N[C@@H](CCSC)C(=O)N[C@@H](CCCNC(=N)N)C(=O)N[C@@H](CCCCN)C(=O)N2)NC(=O)[C@H](CSSC[C@@H](C(=O)N[C@@H](CCCCN)C(=O)N[C@@H](Cc2ccc(O)cc2)C(=O)N[C@H](C(=O)N[C@@H](Cc2ccccc2)C(N)=O)C(C)C)NC(=O)[C@H](Cc2c[nH]c4ccccc24)NC(=O)[C@H](CCCCN)NC(=O)[C@H](Cc2cnc[nH]2)NC(=O)[C@H](Cc2cnc[nH]2)NC(=O)[C@H](CCCNC(=N)N)NC(=O)[C@H](CO)NC3=O)NC(=O)[C@H](CCCCN)NC(=O)[C@H](CC(=O)O)NC(=O)[C@H](CC(N)=O)NC(=O)[C@H](CC(=O)O)NC(=O)[C@@H]2CCCN2C1=O` [[His26]GpTx-1(1-34)] (H-DCLGFMRKCIPDNDKCCRPNLVCSRHHKWCKYVF-NH2; disulfide 2-17, 9-23, 16-30), for which the concentration for half-maximal inhibition (IC50) was 3 nM on hNav1.7 and 4950 nM at hNav1.5.

Take `CC[C@H](C)[C@@H]1NC(=O)[C@@H]2CSSC[C@@H]3NC(=O)[C@H](C(C)C)NC(=O)[C@H](CC(C)C)NC(=O)[C@H](CC(N)=O)NC(=O)[C@@H]4CCCN4C(=O)[C@H](CCCNC(=N)N)NC(=O)[C@H](CSSC[C@H](NC(=O)[C@@H](N)CC(=O)O)C(=O)N[C@@H](CC(C)C)C(=O)NCC(=O)N[C@@H](Cc4ccccc4)C(=O)N[C@@H](CCSC)C(=O)N[C@@H](CCCNC(=N)N)C(=O)N[C@@H](CCCCN)C(=O)N2)NC(=O)[C@H](CSSC[C@@H](C(=O)N[C@@H](CCCCN)C(=O)N[C@@H](Cc2ccc(O)cc2)C(=O)N[C@H](C(=O)N[C@@H](Cc2ccccc2)C(N)=O)C(C)C)NC(=O)[C@H](Cc2c[nH]c4ccccc24)NC(=O)[C@H](CCCCN)NC(=O)[C@H](Cc2c[nH]cn2)NC(=O)[C@H]([C@@H](C)O)NC(=O)[C@H](CCCCN(C)C)NC(=O)[C@H](CO)NC3=O)NC(=O)[C@H](CCCCN)NC(=O)[C@H](CC(=O)O)NC(=O)[C@H](CC(N)=O)NC(=O)[C@H](CC(=O)O)NC(=O)[C@@H]2CCCN2C1=O` [[K(Me2)25]GpTx-1(1-34)] (H-DCLGFMRKCIPDNDKCCRPNLVCS[Lys(Me2)]THKWCKYVF-NH2; disulfide 2-17, 9-23, 16-30): the half-inhibitory concentration (IC50) amounted to 8 nM against hNav1.7 and 13300 nM on hNav1.5.
